Experiments:
Escherichia coli isolate = test: Digital same-sample filtration AST, one treated and one concurrent reference condition (Example 5); assay type: cell-based; conditions: 1.0 μg/mL ETP; for lysed cells detected: all detected treated cells lysed
Method: The inoculum was small enough that no detectable difference in the sample's optical density at 600 mm (OD600) was detectable by a spectrophotometer with a sensitivity of 0.01 absorbance units. After an incubation at 37° C., the media became turbid with an OD600 of 0.18 absorbance units after 3 hours of incubation.
(§1) In this experiment, the number and volume of sample partitions was restricted, for logistical reasons, to 96 partitions 10 μL, in volume, specifically the wells of a 96-well plate. A goal was chosen of having a >98% chance of ending up with at least 48 empty partitions. When all partitions are the same volume, the following formula relates the expected number of empty partitions, the partition volume, and the density of cells.
(§2) N is the total number of partitions, n is the number of empty partitions, V is the partition volume, D is the density of cells, and t is a threshold probability chosen by the practitioner. Thus, in order to achieve digital sample partitioning with the available 96-well plate, the contrived clinical specimen was diluted to a cell density of 0.0375 cells/μL. Each 10 μL sample of the specimen would then contain 0.375 cells on average.
(§3) To begin the AST protocol, the contrived clinical specimen was physically split into the 96 partitions by transferring 10 μL of the sample, in 96 separate transfers (actually 12 transfers with a multichannel pipette), to 96 wells of a microtiter plate. Each well contained 15 μL of Mueller-Hinton Broth (MHB) growth media. Half of the wells (48) contained 0 μg/mL of dissolved ETP antibiotic and served as reference condition antibiotic exposures. The other half of the wells contained 1.67 μg/mL of ETP (for a final concentration of 1.0 μg/mL) and served as 48 treated condition antibiotic exposures. The 96 antibiotic exposures were incubated at 37° C. for 70 minutes.
The entire volume of each antibiotic exposure was transferred to a Millipore® 96-well sterile polystyrene MultiScreenHTS® filter plate (Millipore-Sigma MSGVS2210). Each well of the filter plate contained a hydrophilic polyvinylidene fluoride (PVDF) filter membrane with a 0.22 μm pore size. The antibiotic exposures were centrifuged at 2200 relative centrifugal force to speed the passage of the antibiotic exposure through the filter and into 96 collecting vessels. The collected fluid was called the “filtrate.”
(§4) 50 μL of fresh MHB media was spun through the filters after the first centrifugation (above) to wash away residual extracellular nucleic acids present in the fluid wetting the filters. This wash fluid is not collected with the filtrates.
10 μL of each of the filtrates was added to and mixed with 10 μL of Lucigen DNA Extraction Buffer, heated to 65° C. for 6 minutes, then heated to 98° C. for 4 minutes.
20 μL of DNA Extraction Buffer was placed on top of the filters. The filter plate was heated to 65° C. for 6 minutes, shaking at 700 rpm, on a ThermoMixer® flat surface heating block. Then, the filter plate was taped to a clean 96-well polypropylene microtiter plate and centrifuged at 2000 rcf for 2 minutes. The DNA Extraction Buffer fluid that flowed through the filter was collected in the microtiter plate below the filter plate. Next, the microtiter plate was heated to 98° C. for 4 minutes inside a BioRad thermocycler. These collected and heated fluid volumes are termed the “lysates” which comprise intracellular nucleic acid.
Separately, for each of the 96 extracted filtrates and for each of the 96 extracted lysates, 1.00 μL of the extracted filtrate was mixed with 0.02 μL of 3 U/mL Lucigen® RapiDxFire thermostable reverse transcriptase, 0.2 μL of Lucigen® RapiDxFire 10× thermostable buffer, 0.1 μL of 10 mM deoxyribonucleic acid nucleotides, 0.6 μL of deionized water, and 0.08 μL of a 10 μM aqueous solution of DNA primer, according to manufacturer's instructions, to create a reverse transcription reaction with a total volume of 2.0 μL. […]

[1] = tested on: carbapenem-resistant Escherichia coli isolate; test: Digital same-sample filtration AST, one treated and one concurrent reference condition (Example 6); assay type: cell-based
Method: The inoculum was small enough that no detectable difference in the sample's optical density at 600 mm (OD600) was detectable by a spectrophotometer with a sensitivity of 0.01 absorbance units. The OD600 of the culture measured every 30 minutes after the culture was incubated at 37° C. to calculate the doubling time of the strain. The media became turbid with an OD600 of 0.28 absorbance units after 3.1 hours of incubation.
as §1, §2
as §3, with “sample” for “specimen”, “exposures.” for “exposures. The 96 antibiotic exposures were incubated at 37° C. for 70 minutes.”
The 96 antibiotic exposures were incubated at 37° C. for 40 minutes.
The entire volume of each antibiotic exposure was transferred to a Millipore® 96-well sterile polystyrene MultiScreenHTS® filter plate (Millipore-Sigma MSGVS2210). Each well of the filter plate contained a hydrophilic polyvinylidene fluoride (PVDF) filter membrane with a 0.22 μm pore size. The antibiotic exposures were centrifuged at 2200 relative centrifugal force to speed the passage of the antibiotic exposure through the filter and into 96 collecting vessels. The collected fluid was called the “filtrate.” It is expected that the filtrate will contain all or most of the extracellular nucleic acids present in the antibiotic exposure, but none of the intracellular nucleic acids in the antibiotic exposure.
as §4
10 μL of each of the filtrates was added to and mixed with 10 μL of Lucigen DNA Extraction Buffer, heated to 65° C. for 6 minutes, then heated to 98° C. for 4 minutes to create extracted filtrates.
20 μL of DNA Extraction Buffer was placed into all of the wells of the filter plate, on top of the filters. The filter plate was heated to 65° C. for 6 minutes, shaking at 700 rpm, on a ThermoMixer® flat surface heating block. Then, the filter plate was taped to a clean 96-well polypropylene microtiter plate and centrifuged at 2000 rcf for 2 minutes. The DNA Extraction Buffer fluid that flowed through the filter was collected in the microtiter plate below the filter plate. Next, the microtiter plate was heated to 98° C. for 4 minutes inside a BioRad thermocycler. These collected and heated fluid volumes are termed the “extracted lysate”. […]

[2] = 1.0 μg/mL ETP, 40 minutes, assuming exponential division, doubling time approximately 30 minutes
[3] = 1.0 μg/mL ETP, 40 minutes, simple estimate
[4] = Treated 1.0 μg ETP, 40 minutes 37° C., 48 partitions, ddPCR

C[C@@H](O)[C@H]1C(=O)N2C(C(=O)O)=C(S[C@@H]3CN[C@H](C(=O)Nc4cccc(C(=O)O)c4)C3)[C@H](C)[C@H]12 [ETP, ertapenem]
percent extracellular of detected antibiotic-treated cells (lysis) (Escherichia coli isolate; 70 minutes 37° C., qPCR 23S rRNA, 96 partitions): 100%
susceptibility call (Fisher's exact test) (Escherichia coli isolate; 70 minutes, ddPCR): susceptible
percent extracellular of detected antibiotic-treated cells (lysis) (Escherichia coli isolate; 70 minutes, ddPCR 23S rRNA, 56 of the 96 partitions): 100%
lysed cells detected (Escherichia coli isolate; 70 minutes, ddPCR, 56 of the 96 partitions): 9
susceptibility call (Fisher's exact test) (Escherichia coli isolate; 70 minutes, qPCR): susceptible
lysed cells detected (Escherichia coli isolate; 70 minutes, qPCR, of the 96 partitions): 19
treated EINAPV (fraction extracellular), alternative estimate ([1]; 1.0 μg/mL ETP, 40 minutes, alternative cell estimate, reference EINAPV 1/6): 1/7
intact cells in treated condition (alternative estimate) [1, 2]: 6
killed cells in treated condition (alternative estimate) [1, 2]: 1
susceptibility call ([1]; 1.0 μg/mL ETP, 40 minutes, p-value vs 0.05 threshold): resistant
intact cells in treated condition at time of filtration (estimate) [1, 3]: 3
killed cells in treated condition at time of filtration (estimate) [1, 3]: 1
treated EINAPV (fraction extracellular) ([1]; 1.0 μg/mL ETP, 40 minutes, simple estimate, reference EINAPV 1/4): 1/4
Both (number of wells) [1, 4]: 0
Empty (number of wells) [1, 4]: 44
Extracellular only (number of wells) [1, 4]: 1
Intracellular only (number of wells) [1, 4]: 3
